Test: Stability of iodine-containing X-ray contrast medium against radiation (iodine-starch reaction)
Assay type: physicochemical
Conditions: about 40 mg in 40 ml 0.1% starch solution
Description: Approximately 40 mg 2,3,5-triiodobenzoic acid (TIB) or another X-ray contrast medium that can be obtained commercially (diatrizoic acid or iotalamic acid etc.) is dissolved in 40 ml of a 0.1% starch solution while gently heating. 20 ml is in each case distributed to two Petri dishes (diameter 11.5 cm). Dish 1 is placed in full sunlight for 1 hour. Dish 2 is irradiated at a distance of 11 cm with a UV hand-held lamp (254 nm, 14 μW/cm^2).
This is even more significant because the energy of the UV irradiation (like the intensity of the irradiation source used) is approximately 100-fold lower than that of the X-ray irradiation of a computer tomograph.

With `O=C(O)c1cc(I)cc(I)c1I` [2,3,5-triiodobenzoic acid] the “colour of the solution (iodine-starch reaction) after exposure to daylight” value (dish 1, full sunlight for 1 hour) was “still colourless” and the “colour of the solution (iodine-starch reaction) after UV irradiation” value (dish 2, UV hand-held lamp 254 nm, 14 μW/cm^2, distance 11 cm) was “typical, intensive blue staining of the iodine-starch reaction”.
